This is an account of results in PMC5601360 (Journal of Medicinal Chemistry, 2017).

Like-named read-outs stand apart in the source and are kept apart here.

The subject of series [1] is acetic acid-induced writhing in CD1 mice. Put plainly: Acetic acid-induced writhing assay in mice after sc administration. It counts as in vivo. Conditions: for ED50: Mus musculus, 0.5 h, CD1 mice, inhibition of writhing at 30 min after drug administration, read-out: antinociceptive ED50 (95% CI); for antagonism by nor-BNI of the antinociceptive effect: nor-BNI 20 mg/kg sc 24 h before agonist (2: 5 mg/kg; 3: 1 mg/kg; 4: […] sc). How it is done:
Male CD1 mice (30–35 g, 6–8 weeks old) were obtained from the Center of Biomodels and Experimental Medicine (CBEM) (Innsbruck, Austria) or Charles River (Sulzfeld, Germany). Mice were group-housed in a temperature controlled room with a 12 h light/dark cycle and with free access to food and water. All animal studies were conducted in accordance with ethical guidelines and animal welfare standards according to Austrian regulations for animal research and were approved by the Committee of Animal Care of the Austrian Federal Ministry of Science and Research. Solutions of test compounds were prepared as 1% DMSO solutions in sterile physiological 0.9% saline and further diluted to working doses in saline solution. Test compounds or vehicle (saline) were administered by sc route in a volume of 10 μL/1 g of body weight. All doses are expressed in terms of salts. Separate groups of mice received the respective dose of compound, and individual mice were only used once for behavioral testing. Each experimental group included at least five animals.
Writhing was induced in male CD1 mice by intraperitoneal (ip) injection of a 0.6% acetic acid aqueous solution as described previously.[9a] Groups of mice were administered sc different doses of test compound or saline (control), and then 5 min prior to testing (25 min after drug or saline) each animal received an ip injection of acetic acid solution. Each mouse was placed in individual transparent Plexiglas chambers, and the number of writhes was counted during a 10 min observation period. […] For the antagonism studies, nor-BNI (20 mg/kg) was sc administered 24 h before 2 (5 mg/kg) and 17 (10 mg/kg) was sc administered 15 min before U50,488 (2 mg/kg).
(In general: Writhing tests count abdominal constrictions after an irritant is injected.)

For a further series, the system named is CD1 mice. The following applies: mouse, in vivo, sc.
The target of series [2] is T1, human KOP receptor (Homo sapiens, UniProt P41145).
T1 construct: expressed in transfected cells; host or cells: CHO-hKOP cells (gift of Dr. Lawrence Toll, SRI International)
The following applies: ref 9a, cited from earlier work.

The target in series [3] is T2, human DOP receptor (Homo sapiens, UniProt P41143).
T2 construct: expressed in transfected cells; host or cells: CHO-hDOP cells (gift of Dr. Lawrence Toll, SRI International)
The following applies: CHO-hDOP membranes; ref 9a; read-out: receptor binding affinity Ki DOP; cited from earlier work.

Series [4] has as its target T1, human KOP receptor. The following applies: percentage stimulation relative to the KOP full agonist U69,593; ref 9a; cited from earlier work.
The next series concerns mice. The following applies: icv, ref 9d; cited from earlier work.
Series [5] deals with acetic acid-induced writhing in CD1 mice. The following applies: mouse, in vivo, sc; cited from earlier work.
The target in series [6] is T1, human KOP receptor. Briefly: Competition binding assay, CHO-hKOP cell membranes, [3H]U69,593. How it is done:
(§1) CHO cells stably expressing recombinant human KOP, MOP, or DOP receptors (CHO-hKOP, CHO-hMOP, and CHO-hDOP cell lines) were kindly provided by Dr. Lawrence Toll (SRI International, Menlo Park, CA). The CHO-hKOP cell line was maintained in Dulbecco’s Minimal Essential Medium (DMEM) supplemented with fetal bovine serum (FBS, 10%), penicillin/streptomycin (0.1%), L-glutamine (2 mM), and geneticin (400 μg/mL). The CHO-hMOP and CHO-hDOP cell lines were maintained in DMEM/Ham’s F-12 medium supplemented with FBS (10%), penicillin/streptomycin (0.1%), L-glutamine (2 mM), and geneticin (400 μg/mL). Cell cultures were maintained at 37 °C in 5% CO2 humidified air.
(§2) Nonspecific binding was determined using 1–10 μM of the unlabeled counterpart of each radioligand. Assays were performed in 50 mM Tris-HCl buffer (pH 7.4) in a final volume of 1 mL. Cell membranes (15–20 μg) were incubated with the appropriate radioligand and various concentrations of test compound for 60 min at 25 °C. After incubation, reactions were terminated by rapid filtration through Whatman glass fiber filters. Filters were washed three times with 5 mL of ice-cold 50 mM Tris-HCl buffer (pH 7.4) using a Brandel M24R cell harvester (Gaithersburg, MD). Radioactivity retained on the filters was counted by liquid scintillation counting using a Beckman Coulter LS6500 (Beckman Coulter Inc., Fullerton, CA). All binding experiments were performed in duplicate and repeated at least three times. The inhibitory constant Ki values (in nM) were calculated from the competition binding curves by nonlinear regression analysis and the Cheng–Prusoff equation.[16]

A further series addresses T3, human MOP receptor (Homo sapiens, UniProt P35372).
T3 construct: expressed in transfected cells; host or cells: CHO-hMOP cells (gift of Dr. Lawrence Toll, SRI International)
Put plainly: Competition binding assay, CHO-hMOP cell membranes, [3H]DAMGO. Conditions: mean ± SEM, read-out: receptor binding affinity Ki MOP. How it is done: as §1
as §2, with “. Nonspecific” for “Nonspecific”

Series [7] addresses T2, human DOP receptor. Put plainly: Competition binding assay, CHO-hDOP cell membranes, [3H]diprenorphine. The following applies: mean ± SEM, read-out: receptor binding affinity Ki DOP. How it is done:
as §1
as §2, with “. Nonspecific” for “Nonspecific”

For series [8], the target named is T1, human KOP receptor. Briefly: [35S]GTPγS binding assay using CHO-hKOP cell membranes. It counts as biochemical. The protocol:
The binding of [^35S]GTPγS to membranes from CHO cells stably expressing human KOP receptors (CHO-hKOP cells) was conducted according to the published procedures.[9a],[9b] CHO-hKOP cell membranes were prepared in buffer A (20 mM HEPES, 10 mM MgCl2, and 100 mM NaCl, pH 7.4). Cell membranes (8–15 μg) in buffer A were incubated with 0.05 nM [^35S]GTPγS, 10 μM GDP, and various concentrations of test compound in a final volume of 1 mL for 60 min at 25 °C. Nonspecific binding was determined using 10 μM GTPγS, and the basal binding was determined in the absence of test ligand. Samples are filtered over glass fiber filters and counted as described for binding assays. […] To determine the KOP antagonist activity, a concentration–response curve for U69,593 was obtained by assessing the [^35S]GTPγS binding to CHO-hKOP cell membranes in the presence or absence of test compound, as previously described.[9b] For each compound, the Schild analysis was conducted, utilizing a full agonist–dose response curve in the presence of at least two concentrations of the antagonist. The equilibrium dissociation constant (Ke) was calculated from the equation Ke = [a]/(DR – 1), where “a” is the concentration of antagonist and DR the virtual shift of the agonist concentration–response curve to the right in the presence of a given concentration of antagonist. All experiments were performed in duplicate and repeated at least three times.

For the compound `Oc1cccc(CCN(CCc2ccccc2)CC2CC2)c1` [Compound 2], the ED50 (as a rule, the dose at which the effect has come halfway, by size or by number of responders) in [1] (sc) was found to be 3.23 mg/kg. Further, in [1], the “antagonism by nor-BNI of the antinociceptive effect” value is reported as “blocked by nor-BNI”. In addition, the “inhibition of the writhing response” value in series [1] (sc, different doses, 30 min after drug administration) was “Dose-dependent inhibition of the writhing response”. For the same compound, the “effect on rotarod performance (evoked locomotor activity)” value with CD1 mice is listed as “did not affect the evoked locomotor activity”. On human KOP receptor [2] (Ki ratio DOP/KOP), the “selectivity DOP/KOP” value was above 1700. Also, at human KOP receptor [2] (Ki ratio MOP/KOP), the “selectivity MOP/KOP” value is listed as 140. Besides, on human DOP receptor [3], the Ki (as a rule, a measure of affinity in units of concentration, obtained from inhibition or displacement) is above 10000 nM. Also, the “[35S]GTPγS KOP % stim” value on human KOP receptor [4] is on record as 53.4 ± 8.1%. The “antinociceptive potency compared to U50,488” value in the series with mice is on record as “equipotent”.

With `Oc1cccc(CCN(CCc2ccccc2)CC2CCC2)c1` [Compound 1], in the series on CD1 mice, the “effect on rotarod performance (evoked locomotor activity)” value is on record as “did not affect the evoked locomotor activity”. For the same compound, the Ki on human DOP receptor [3] was above 10000 nM. In addition, in [5], the “antinociceptive ED50 (95% CI)” value is on record as 1.91 (1.02–3.58) mg/kg. Moreover, in the series with mice, the “antinociceptive potency compared to U50,488” value was 2 fold.

With `Cl.Oc1cccc(CCN(CCc2ccccc2)CC2CCCC2)c1` [Compound 3, 3-[2-[(Cyclopentylmethyl)(phenethyl)amino]ethyl]phenol Hydrochloride], the inhibition constant Ki worked out at 0.017 ± 0.002 nM on human KOP receptor [6] (CHO-hKOP membranes, mean ± SEM, read-out: receptor binding affinity Ki KOP); 274 ± 20 nM on human MOP receptor; 2270 ± 625 nM on human DOP receptor [7]. The “selectivity DOP/KOP” value at human KOP receptor [6] (Ki ratio DOP/KOP) came out at 133471. Further, the “selectivity MOP/KOP” value at human KOP receptor [6] (Ki ratio MOP/KOP) amounted to 16118. Also, the EC50 (usually the midpoint of the concentration-response curve) on human KOP receptor [8] (CHO-hKOP membranes, mean ± SEM) was determined as 3.87 ± 1.44 nM. Further, at human KOP receptor [8] (percentage stimulation relative to the KOP full agonist U69,593, read-out: [35S]GTPγS KOP % stim), the Emax is at least 80%. Further, the ED50 in series [1] (sc) stood at 0.49 mg/kg. Besides, the “antagonism by nor-BNI of the antinociceptive effect” value in series [1] is reported as “antagonized by the KOP antagonist nor-BNI”. Further, the “increase in antinociceptive potency vs U50,488” value in series [1] (sc, ED50 comparison) was “about 3 fold”. For the same compound, in series [1] (sc, ED50 comparison), the “increase in antinociceptive potency vs compound 1” value came to 4 fold. In addition, the “increase in antinociceptive potency vs compound 2” value in series [1] (sc, ED50 comparison) worked out at 7 fold. For the same compound, the “effect on rotarod latencies (motor behavior)” value with CD1 mice (7.5 mg/kg) was “no significant alterations in rotarod latencies”.
